Test results: patent US6492383B1, “Thienopyrimidine and thienopyridine derivatives useful as anticancer agents” (Pfizer Inc., priority 1998, dated 2002)
Counter-ions that a name gives are not always drawn.

melting point	Structure (SMILES)
171 to 182 °C	CCc1ccc(-c2cc3ncnc(Nc4ccc5[nH]ccc5c4)c3s2)cc1 [Example 13, [6-(4-Ethyl-phenyl)-thieno[3,2-d]pyrimidin-4-yl]-(1H-indol-5-yl)-amine]
178 to 180 °C	CCN(CC)CCCn1ccc2cc(Nc3ncnc4cc(-c5ccccc5)sc34)ccc21 [Example 70, [1-(3-Diethylamino-propyl)-1H-indol-5-yl]-(6-phenyl-thieno[3,2-d]pyrimidin-4-yl) -amine]
105 to 118 °C	COC(=O)CCNCc1ccc(-c2cc3ncnc(Nc4ccc5[nH]ccc5c4)c3s2)cc1 (as salt: HCl) [Example 17, 3-{4-[4-(1H-Indol-5-ylamino)-thieno[3,2-d]pyrimidin-6-yl]-benzylamino}-propionic Acid Methyl Ester]
221 to 223 °C	Cc1c[nH]c2ccc(Nc3ncnc4cc(-c5ccccc5)sc34)cc12 [Example 82, (3-Methyl-1H-indol-5-yl)-(6-phenyl-thieno[3,2-d]pyrimidin-4-yl)-amine]
210 to 211 °C	COc1ccc(Nc2ccc(Nc3ncnc4cc(-c5ccccc5)sc34)cc2)cc1 [Example 62, N-(4-Methoxy-phenyl)-N′-(6-phenyl-thieno[3,2-d]pyrimidin-4-yl)-benzene-1,4-diamine]
175 to 184 °C	COc1ccc(Nc2ccc(Nc3ccnc4cc(-c5ccc(OC)nc5)sc34)cc2)cc1 [Example 87, N-(4-Methoxy-phenyl)-N′-[2-(6-methoxy-pyridin-3-yl)-thieno[3,2-b]pyridin-7-yl]-benzene-1,4-diamine]
190 to 210 °C	Clc1ccc(-c2cc3ncnc(Nc4ccc5[nH]ccc5c4)c3s2)cc1 [Example 3, [6-(4-Chloro-phenyl)-thieno[3,2-d]pyrimidin-4-yl]-(1H-indol-5-yl)-amine]
238 to 241 °C	Cc1cccc(Nc2ncnc3cc(-c4ccccc4)sc23)c1 (as salt: HCl) [Example 92, (6-Phenyl-thieno[3,2-d]pyrimidin-4-yl)-m-tolyl-amine]
160 to 161 °C	COc1ccc(Nc2ccc(Nc3ncnc4cc(-c5ccccc5)sc34)cc2)cc1OC [Example 65, N-(3,4-Dimethoxy-phenyl)-N′-(6-phenyl-thieno[3,2-d]pyrimidin-4-yl)-benzene-1,4-diamine]
193 to 205 °C	Fc1ccc(-c2cc3ncnc(Nc4ccc5[nH]ccc5c4)c3s2)cc1 [Example 4, [6-(4-Fluoro-phenyl)-thieno[3,2-d]pyrimidin-4-yl]-(1H-indol-5-yl)-amine]
141 to 152 °C	c1nc(Nc2ccc3[nH]ccc3c2)c2sc(-c3ccc(CN4CCOCC4)cc3)cc2n1 [Example 37, (1H-Indol-5yl)-[6-(4-morpholin4-ylmethyl-phenyl)-thieno[3,2-d]pyrimidin-4-yl]-amine]
175 to 183 °C	Fc1ccc(-c2cc3ncnc(Nc4ccc5[nH]ccc5c4)c3s2)cc1Cl [Example 12, [6-(3-Chloro-4-fluoro-phenyl)-thieno[3,2-d]pyrimidin-4-yl]-(1H-indol-5-yl)-amine]
